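Five concentrations, 48 hours, 96-well plates. GI50 = concentration required for 50% inhibition of growth. TGI: concentration producing complete growth inhibition.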 Where a SMILES comes first, the peptide text is derived from it. The star is where a group is joined. Boc = CC(C)(C)OC(=O)*; Bn = c1ccc(C*)cc1
Columns and labels:
Test in all cases: NCI tumour cell line growth inhibition, 48 h
ACHN renal = test system: ACHN renal
HCT-15 colon = test system: HCT-15 colon
KM12 colon = test system: KM12 colon
MCF7 breast = test system: MCF7 breast
MDA-N = test system: MDA-N
NCI-H23 lung = test system: NCI-H23 lung
OVCAR-8 ovarian = test system: OVCAR-8 ovarian
RPMI-8226 leukemia = test system: RPMI-8226 leukemia
RXF 393 renal = test system: RXF 393 renal
SNB-19 CNS = test system: SNB-19 CNS

| SMILES | TGI (ACHN renal) | TGI (HCT-15 colon) | TGI (KM12 colon) | TGI (MCF7 breast) | TGI (MDA-N) | TGI (NCI-H23 lung) | TGI (OVCAR-8 ovarian) | TGI (RPMI-8226 leukemia) | TGI (RXF 393 renal) | TGI (SNB-19 CNS) | GI50 (ACHN renal) | GI50 (HCT-15 colon) | GI50 (KM12 colon) | GI50 (NCI-H23 lung) | GI50 (OVCAR-8 ovarian) | GI50 (RPMI-8226 leukemia) |
| --- | --- | --- | --- | --- | --- | --- | --- | --- | --- | --- | --- | --- | --- | --- | --- | --- |
| C[C@H]1[C@H]2[C@H]3CC[C@@H]4[C@@]5(C)CC[C@H](O)C(C)(C)[C@@H]5CC[C@@]4(C)[C@]3(C)C[C@H](O)[C@@]2(C)C[C@H]2O[C@]21C | 31.1 µM | 54.8 µM | 46.1 µM | 42.3 µM | 46.5 µM | 40.3 µM | 48.2 µM | > 100 µM | 35.1 µM | 49.7 µM | – | – | – | – | – | – |
| NS(=O)(=O)c1ccc(/C=C/c2ccc(O)c(O)c2)cc1 | > 100 µM | > 100 µM | 48.9 µM | 51.9 µM | 65.7 µM | 79.3 µM | 56.5 µM | 73.3 µM | > 100 µM | > 100 µM | 20.4 µM | 13.9 µM | 18.2 µM | 25.9 µM | 16.7 µM | 9.16 µM |
| CN1CCc2c([nH]c3ccccc23)C1 | > 100 µM | > 100 µM | > 100 µM | > 100 µM | > 100 µM | > 100 µM | > 100 µM | > 100 µM | > 100 µM | > 100 µM | – | – | – | – | – | – |
| COC(=O)C(CC(C)C)NC(=O)C(C)NC(=O)C(Cc1ccc(OCc2ccccc2)cc1)NC(=O)C(COCc1ccccc1)NC(=O)OC(C)(C)C (stereo not drawn) (Boc-S(Bn)Y(Bn)AL-OMe; configuration not given here) | > 100 µM | – | > 100 µM | > 100 µM | > 100 µM | > 100 µM | > 100 µM | > 100 µM | > 100 µM | > 100 µM | – | – | – | – | – | – |
| Cc1ccc2c(c1)C(=S)N1CSCC1c1nncn1-2 (stereo not drawn) | > 100 µM | > 100 µM | > 100 µM | > 100 µM | > 100 µM | – | > 100 µM | > 100 µM | > 100 µM | > 100 µM | – | – | – | – | – | – |
| O=C(O)C(O)C(O)C(O)C(O)c1nc2ccccc2s1 (stereo not drawn) | 33.2 µM | 82.9 µM | 71.1 µM | 33.1 µM | 33.2 µM | 66.1 µM | 37.4 µM | 68.8 µM | 32.6 µM | 49.8 µM | – | – | – | – | – | – |
| COC(=O)C1=C(OC(=O)/C(=C/c2ccc(Cl)cc2)c2ccc(Cl)cc2)C(C(=O)OC)[C@@]2(O)[C@@H](C(=O)OC)[C@H](C)C[C@@H]1[C@@H]2C(=O)OC (stereo partly drawn) | > 100 µM | > 100 µM | > 100 µM | > 100 µM | > 100 µM | > 100 µM | > 100 µM | > 100 µM | > 100 µM | > 100 µM | – | – | – | – | – | – |
| BrC1=C(Br)C2(SCCS2)[C@H]2C[C@@H]1c1ccccc12 | > 100 µM | > 100 µM | > 100 µM | > 100 µM | > 26.2 µM | > 100 µM | > 100 µM | > 100 µM | > 100 µM | > 100 µM | – | – | – | – | – | – |
| CCO/C(O)=C(/C(=N)N1CCOCC1)C(=O)Nc1ccc(F)cc1 | > 100 µM | > 100 µM | > 100 µM | > 100 µM | > 100 µM | > 100 µM | > 100 µM | > 100 µM | > 100 µM | > 100 µM | – | – | – | – | – | – |
| COC(=O)C1=C(C(=O)OC)N(c2ccc(OC)cc2[N+](=O)[O-])C(c2ccc(C)cc2)=CC1c1ccc(OC)cc1OC (stereo not drawn) | > 100 µM | 57.9 µM | 25.7 µM | > 100 µM | > 100 µM | > 100 µM | 47.9 µM | 6.07 µM | 50 µM | > 95.6 µM | – | – | – | – | – | – |
| O=C(Nc1ccccc1)c1cc(S(=O)(=O)NC2=NC(c3ccccc3)c3cc(Cl)ccc3N2)c(SSc2cc(Cl)c(C(=O)Nc3ccccc3)cc2S(=O)(=O)NC2=NC(c3ccccc3)c3cc(Cl)ccc3N2)cc1Cl (stereo not drawn) | > 100 µM | > 100 µM | > 100 µM | > 100 µM | > 100 µM | > 100 µM | > 100 µM | > 100 µM | > 100 µM | > 100 µM | – | – | – | – | – | – |
| O=C1C2SC34c5c2c2ccccc2n5CCC3CCCN14 (stereo not drawn) | > 100 µM | > 100 µM | > 100 µM | > 100 µM | > 100 µM | > 100 µM | > 100 µM | > 100 µM | > 100 µM | > 100 µM | – | – | – | – | – | – |
| COC[C@@H](N=CC(C)(C)C)C(C)C | > 100 µM | > 100 µM | > 100 µM | > 100 µM | > 100 µM | > 100 µM | > 100 µM | > 100 µM | > 100 µM | > 100 µM | – | – | – | – | – | – |
| CN1C(=O)c2ccccc2OC12C=Cc1c(ccc3ccccc13)O2 (stereo not drawn) | 10.2 µM | > 25.5 µM | 8.64 µM | > 44.6 µM | 10.4 µM | 16 µM | 17.6 µM | > 71.9 µM | 31.1 µM | > 59.4 µM | – | – | – | – | – | – |
| N#CC1C(=S)NC(c2ccccc2)=CC12CCCCC2 (stereo not drawn) | 72.3 µM | 53 µM | 60.2 µM | 42.4 µM | > 100 µM | 36.9 µM | > 100 µM | 54.3 µM | > 100 µM | > 100 µM | – | – | – | – | – | – |
| Fc1ccc2c(c1)nc1n2C(c2c(Cl)cccc2Cl)SC1 (stereo not drawn) | 30.7 µM | 24.4 µM | 25.8 µM | 32.2 µM | 24.5 µM | 26.2 µM | 29 µM | 87.7 µM | 31.9 µM | 27.1 µM | – | – | – | – | – | – |
| C=CCc1cccc2cc(C(=O)NCc3ccccc3)c(=N)oc12 | > 100 µM | > 100 µM | > 100 µM | > 100 µM | > 100 µM | > 100 µM | > 100 µM | > 100 µM | > 100 µM | > 100 µM | – | – | – | – | – | – |
| COC(=O)c1ccc(/C=C/c2cc(O)ccc2O)cc1 | 14.1 µM | 12.2 µM | 28 µM | 21.8 µM | > 46.7 µM | > 38.5 µM | 18.4 µM | 4.14 µM | 6.59 µM | > 100 µM | – | – | – | – | – | – |
| COC(=O)c1c(O)ccc2c1c1c(n2Cc2cc(OC)cc(OC)c2)C(=O)c2ccccc2C1 | – | > 100 µM | > 100 µM | > 100 µM | > 100 µM | > 100 µM | > 100 µM | 36.2 µM | 68.6 µM | > 100 µM | – | – | – | – | – | – |
| COc1cccc(C(=O)Oc2ccc(OS(=O)(=O)c3ccc(C)cc3)cc2)c1C#N | > 100 µM | > 100 µM | > 100 µM | > 100 µM | > 100 µM | > 100 µM | > 100 µM | > 100 µM | > 100 µM | > 100 µM | – | – | – | – | – | – |
